Reference: patent publication US7138361B2, “Herbicidal heterocycles” (E. I. du Pont de Nemours and Company, priority 2000, dated 2006)

Key:
Assay type in all cases: in vivo
[1] = tested on: crabgrass (Digitaria sanguinalis); experiment: Test B postemergence
Outline: (§1)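 Pre: seeded pots sprayed, chemical in non-phytotoxic solvent/surfactant mix. Post: plants 2–18 cm, 1–4 leaf, same formulation. Greenhouse 13–15 d; visual % control vs untreated, 0–100 scale.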

[2] = tested on: blackgrass (Alopecurus myosuroides); experiment: Test B postemergence
Outline: as §1

[3] = tested on: cocklebur (Xanthium strumarium); experiment: Test B postemergence
Outline: as §1

[4] = tested on: giant foxtail (Setaria faberii); experiment: Test C preemergence
Outline: (§2)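 Pre- and postemergence treatments used a non-phytotoxic solvent/surfactant formulation; post-treated plants measured 2 to 18 cm. Greenhouse hold 12–14 d; % control estimated visually relative to controls.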

[5] = tested on: lambsquarters (Chenopodium album); experiment: Test C preemergence
Outline: as §2

[6] = tested on: yellow nutsedge (Cyperus esculentus); experiment: Test C preemergence
Outline: as §2

[7] = tested on: johnsongrass (Sorghum halepense); experiment: Test C preemergence
Outline: as §2

[8] = tested on: crabgrass (Digitaria sanguinalis); experiment: Test C preemergence
Outline: as §2

[9] = tested on: Surinam grass (Brachiaria decumbens); experiment: Test C preemergence
Outline: as §2

[10] = tested on: soybean (Glycine max); experiment: Test C preemergence
Outline: as §2

[11] = tested on: cocklebur (Xanthium strumarium); experiment: Test C preemergence
Outline: as §2

[12] = tested on: corn (Zea mays); experiment: Test C preemergence
Outline: as §2

[13] = tested on: goosegrass (Eleusine indica); experiment: Test C preemergence
Outline: as §2

[14] = tested on: Nightshade; experiment: Test C preemergence
[15] = tested on: morningglory (Ipomoea hederacea); experiment: Test C preemergence
Outline: as §2

[16] = tested on: kochia (Kochia scoparia); experiment: Test C preemergence
Outline: as §2

[17] = tested on: bermudagrass (Cynodon dactylon); experiment: Test C preemergence
Outline: as §2

[18] = tested on: common ragweed (Ambrosia elatior); experiment: Test C preemergence
Outline: as §2

[19] = tested on: Sunflower; experiment: Test C preemergence; settings: Rate 250 g/ha, scale 0 to 100, 0 no effect, 100 complete control
[20] = Rate 125 g/ha, scale 0 to 100, 0 no effect, 100 complete control
[21] = Rate 500 g/ha, scale 0 to 100, 0 is no effect, 100 is complete control, 13 to 15 days
[22] = preemergence, Rate 62 g/ha, scale 0 to 100
[23] = preemergence, Rate 500 g/ha, visual evaluation after 12 to 14 days
[24] = preemergence, Rate 250 g/ha, scale 0 to 100, 0 no effect, 100 complete control
[25] = Rate 250 g/ha, scale 0 to 100, 0 no effect, 100 complete control
[26] = Rate 500 g/ha, scale 0 (no effect) to 100 (complete control), 13 to 15 days
[27] = preemergence, Rate 31 g/ha, scale 0 to 100

CCC(C)c1ccn(C2OCN(c3cccc(OC(F)F)c3)C2=O)n1 (stereo not shown) [Compound 134]
Plant response rating, Crabgrass [1, 20]: 20
Plant response rating, Blackgrass [2, 20]: 0
Plant response rating, Blackgrass [2, 21]: 0
Plant response rating, Cocklebur [3, 20]: 30
Plant response rating, Cocklebur [3, 21]: 30
Plant response rating, Foxtail, Giant [4, 20]: 100
Plant response rating, Foxtail, Giant [4, 22]: 90
Plant response rating (0 to 100), Foxtail, Giant [4, 23]: 100
Plant response rating, Foxtail, Giant [4, 24]: 100
Plant response rating, Lambsquarters [5, 20]: 100
Plant response rating, Lambsquarters [5, 22]: 100
Plant response rating (0 to 100), Lambsquarters [5, 23]: 100
Plant response rating, Lambsquarters [5, 24]: 100
Plant response rating, Nutsedge [6, 20]: 70
Plant response rating, Nutsedge [6, 22]: 60
Plant response rating (0 to 100), Nutsedge [6, 23]: 100
Plant response rating, Nutsedge [6, 24]: 90
Plant response rating, Johnsongrass [7, 20]: 100
Plant response rating, Johnsongrass [7, 22]: 100
Plant response rating (0 to 100), Johnsongrass [7, 23]: 100
Plant response rating, Johnsongrass [7, 24]: 100
Plant response rating, Crabgrass [8, 20]: 100
Plant response rating, Crabgrass [8, 22]: 100
Plant response rating (0 to 100), Crabgrass [8, 23]: 100
Plant response rating, Crabgrass [8, 24]: 100
Plant response rating, Surinam grass [9, 20]: 100
Plant response rating, Surinam grass [9, 22]: 100
Plant response rating (0 to 100), Surinam grass [9, 23]: 100
Plant response rating, Surinam grass [9, 24]: 100
Plant response rating, Soybean [10, 20]: 0
Plant response rating, Soybean [10, 22]: 0
Plant response rating (0 to 100), Soybean [10, 23]: 20
Plant response rating, Soybean [10, 24]: 0
Plant response rating, Cocklebur [11, 20]: 0
Plant response rating, Cocklebur [11, 22]: 0
Plant response rating (0 to 100), Cocklebur [11, 23]: 0
Plant response rating, Cocklebur [11, 24]: 0
Plant response rating, Corn [12, 20]: 20
Plant response rating (0 to 100), Corn [12, 23]: 100
Plant response rating, Corn [12, 24]: 100
Plant response rating, Goosegrass [13, 20]: 100
Plant response rating, Goosegrass [13, 22]: 100
Plant response rating (0 to 100), Goosegrass [13, 23]: 100
Plant response rating, Goosegrass [13, 24]: 100
Plant response rating, Nightshade ([14]; Rate 62 g/ha, scale 0 to 100): 0
Plant response rating, Nightshade [14, 20]: 10
Plant response rating, Nightshade [14, 25]: 30
Plant response rating, Morningglory [15, 20]: 0
Plant response rating, Morningglory [15, 22]: 0
Plant response rating (0 to 100), Morningglory [15, 23]: 0
Plant response rating, Morningglory [15, 24]: 0
Plant response rating, Kochia [16, 20]: 100
Plant response rating, Kochia [16, 22]: 100
Plant response rating (0 to 100), Kochia [16, 23]: 100
Plant response rating, Kochia [16, 24]: 100
Plant response rating, Bermudagrass [17, 20]: 100
Plant response rating, Bermudagrass [17, 22]: 100
Plant response rating (0 to 100 where 0 is no effect and 100 is complete control), Bermudagrass [17, 23]: 100
Plant response rating, Bermudagrass [17, 24]: 100
Plant response rating, Ragweed, Common [18, 20]: 0
Plant response rating, Ragweed, Common [18, 22]: 0
Plant response rating (0 to 100), Ragweed, Common [18, 23]: 40
Plant response rating, Ragweed, Common [18, 24]: 0
Plant response rating, Sunflower [19]: 0

Cc1cc(C)nc(N2CCC(n3ccc(C(C)(C)C)n3)C2=O)c1 (stereo not shown) [Compound 138]
Plant response rating, Crabgrass [1, 20]: 0
Plant response rating, Crabgrass [1, 26]: 0
Plant response rating, Blackgrass [2, 20]: 0
Plant response rating, Blackgrass [2, 26]: 0
Plant response rating, Cocklebur [3, 20]: 0
Plant response rating, Cocklebur [3, 26]: 0
Plant response rating, Foxtail, Giant [4, 20]: 100
Plant response rating, Foxtail, Giant [4, 27]: 50
Plant response rating, Foxtail, Giant [4, 22]: 80
Plant response rating, Foxtail, Giant [4, 24]: 100
Plant response rating, Lambsquarters [5, 20]: 100
Plant response rating, Lambsquarters [5, 27]: 100
Plant response rating, Lambsquarters [5, 22]: 100
Plant response rating, Lambsquarters [5, 24]: 100
Plant response rating, Nutsedge [6, 20]: 0
Plant response rating, Nutsedge [6, 27]: 0
Plant response rating, Nutsedge [6, 22]: 0
Plant response rating, Nutsedge [6, 24]: 40
Plant response rating, Johnsongrass [7, 20]: 30
Plant response rating, Johnsongrass [7, 27]: 0
Plant response rating, Johnsongrass [7, 22]: 0
Plant response rating, Johnsongrass [7, 24]: 40
Plant response rating, Crabgrass [8, 20]: 100
Plant response rating, Crabgrass [8, 27]: 20
Plant response rating, Crabgrass [8, 22]: 70
Plant response rating, Crabgrass [8, 24]: 100
Plant response rating, Surinam grass [9, 20]: 0
Plant response rating, Surinam grass [9, 27]: 0
Plant response rating, Surinam grass [9, 22]: 0
Plant response rating, Surinam grass [9, 24]: 100
Plant response rating, Soybean [10, 20]: 60
Plant response rating, Soybean [10, 22]: 30
Plant response rating, Soybean [10, 24]: 100
Plant response rating, Cocklebur [11, 20]: 0
Plant response rating, Cocklebur [11, 27]: 0
Plant response rating, Cocklebur [11, 22]: 0
Plant response rating, Cocklebur [11, 24]: 0
Plant response rating, Corn [12, 20]: 0
Plant response rating, Corn [12, 27]: 0
Plant response rating, Corn [12, 22]: 0
Plant response rating, Corn [12, 24]: 30
Plant response rating, Goosegrass [13, 20]: 90
Plant response rating, Goosegrass [13, 27]: 20
Plant response rating, Goosegrass [13, 22]: 80
Plant response rating, Goosegrass [13, 24]: 100
Plant response rating, Nightshade ([14]; Rate 31 g/ha, scale 0 to 100): 0
Plant response rating, Nightshade ([14]; Rate 62 g/ha, scale 0 to 100): 0
Plant response rating, Nightshade [14, 20]: 50
Plant response rating, Nightshade [14, 25]: 90
Plant response rating, Morningglory [15, 20]: 80
Plant response rating, Morningglory [15, 27]: 30
Plant response rating, Morningglory [15, 22]: 30
Plant response rating, Morningglory [15, 24]: 80
Plant response rating, Kochia [16, 20]: 100
Plant response rating, Kochia [16, 27]: 60
Plant response rating, Kochia [16, 22]: 90
Plant response rating, Kochia [16, 24]: 100
Plant response rating, Bermudagrass [17, 20]: 70
Plant response rating, Bermudagrass [17, 27]: 60
Plant response rating, Bermudagrass [17, 22]: 70
Plant response rating, Bermudagrass [17, 24]: 100
Plant response rating, Ragweed, Common [18, 20]: 0
Plant response rating, Ragweed, Common [18, 27]: 0
Plant response rating, Ragweed, Common [18, 22]: 0
Plant response rating, Ragweed, Common [18, 24]: 30
Plant response rating, Sunflower [19]: 50
